Results reported in the supplement of paper PMC10307832.

Columns and labels:
Experiment in all cases: relative viability (nuclei count vs DMSO), 5 days (fraction); higher = more cells survive
[1] = compound: CCn1c(-c2nonc2N)nc2c(C#CC(C)(C)O)ncc(OC[C@H]3CCCNC3)c21 + COc1cc2c(Oc3ccc(NC(=O)C4(C(=O)Nc5ccc(F)cc5)CC4)cc3F)ccnc2cc1OCCCN1CCOCC1 [Foretinib] (partner 0.25 µM)
Method in brief: (§1)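 Relative viability was taken as the ratio of nuclei in treated wells to nuclei in vehicle wells. Lung cancer cell lines in 1536-well plates received compounds by pin tool one day after seeding, either one drug alone or a fixed anchor-drug dose plus five library-drug doses (not always all listed) in √10 steps. Nuclei were counted on 4× images after 5 days of treatment, and values are medians of duplicate plates.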

BAM7 + Tozasertib = compound: CCOC1=CC=CC=C1N=NC2=C(NN(C2=O)C3=NC(=CS3)C4=CC=CC=C4)C [BAM7] + Cc1cc(Nc2cc(N3CCN(C)CC3)nc(Sc3ccc(NC(=O)C4CC4)cc3)n2)n[nH]1 [Tozasertib] (partner 0.1 µM)
Method in brief: as §1

[2] = compound: CCn1c(-c2nonc2N)nc2c(C#CC(C)(C)O)ncc(OC[C@H]3CCCNC3)c21 + CC(C)C[C@H](NC(=O)[C@H](Cc1ccccc1)NC(=O)c1cnccn1)B(O)O [Bortezomib] (partner 0.002 µM)
Method in brief: as §1

[3] = compound: CCn1c(-c2nonc2N)nc2c(C#CC(C)(C)O)ncc(OC[C@H]3CCCNC3)c21 + C[C@]1(O)C[C@@H](c2nc(-c3ccc4ccc(-c5ccccc5)nc4c3)c3c(N)nccn32)C1 [Linsitinib] (partner 1 µM)
Method in brief: as §1

| Cell Line | relative viability ([1]; first compound 0.01 µM) | relative viability ([1]; first compound 0.03162 µM) | relative viability ([1]; first compound 0.1 µM) | relative viability ([1]; first compound 0.3162 µM) | relative viability ([1]; first compound 1 µM) | relative viability (BAM7 + Tozasertib; first compound 0.5 µM) | relative viability (BAM7 + Tozasertib; first compound 5 µM) | relative viability (BAM7 + Tozasertib; first compound 15.81 µM) | relative viability (BAM7 + Tozasertib; first compound 50 µM) | relative viability ([2]; first compound 0.01 µM) | relative viability ([2]; first compound 0.03162 µM) | relative viability ([2]; first compound 0.1 µM) | relative viability ([2]; first compound 0.3162 µM) | relative viability ([2]; first compound 1 µM) | relative viability ([3]; first compound 0.01 µM) | relative viability ([3]; first compound 0.03162 µM) | relative viability ([3]; first compound 0.1 µM) | relative viability ([3]; first compound 0.3162 µM) | relative viability ([3]; first compound 1 µM) |
| --- | --- | --- | --- | --- | --- | --- | --- | --- | --- | --- | --- | --- | --- | --- | --- | --- | --- | --- | --- |
| HCC-78 | 0.515 | 0.523 | 0.539 | 0.532 | 0.527 | 0.428 | 0.371 | 0.446 | 0.393 | 0.553 | 0.513 | 0.503 | 0.498 | 0.527 | 0.502 | 0.496 | 0.5 | 0.424 | 0.546 |
| HCC-366 | 0.931 | 0.99 | 0.975 | 0.907 | 0.965 | 0.0637 | 0.0775 | 0.062 | 0.0627 | 0.989 | 1.05 | 0.913 | 1.01 | 1.12 | 0.598 | 0.761 | 0.498 | 0.522 | 0.668 |
| HCC-827 | 1.02 | 1.09 | 1.01 | 1.06 | 1.02 | 0.405 | 0.433 | 0.395 | 0.388 | 1.07 | 1.04 | 1.09 | 0.988 | 1.02 | 0.879 | 1.03 | 0.97 | 0.942 | 0.962 |
| HOP-62 | 1.08 | 1.13 | 1.08 | 0.985 | 1.16 | 0.417 | 0.413 | 0.337 | 0.308 | 0.623 | 0.615 | 0.803 | 0.376 | 0.922 | 1.07 | 0.942 | 1.03 | 0.921 | 0.878 |
| IA-LM | 0.955 | 1.02 | 1.09 | 0.946 | 0.923 | – | – | – | – | 0.854 | 0.77 | 0.877 | 0.679 | 0.373 | 0.62 | 0.554 | 0.658 | 0.518 | 0.464 |
| LC-2-ad | 0.94 | 0.906 | 0.923 | 0.909 | 1.01 | 0.501 | 0.424 | 0.466 | 0.451 | 0.986 | 0.993 | 1.03 | 0.977 | 0.968 | 0.878 | 0.919 | 0.836 | 0.849 | 0.875 |
| LCLC-97TM1 | 1.03 | 0.91 | 1.01 | 0.877 | 0.874 | 0.207 | 0.442 | 0.261 | 0.172 | 0.756 | 0.383 | 0.794 | 0.459 | 0.522 | – | 0.159 | 0.169 | 0.229 | 0.21 |
| LK-2 | 0.994 | 1.15 | – | – | 1.09 | 0.173 | 0.174 | 0.15 | 0.173 | – | – | – | – | – | 0.7 | 0.715 | 0.422 | 0.746 | 0.559 |
| NCI-H358 | 0.646 | 0.977 | 0.657 | 0.73 | 0.663 | 0.136 | 0.0963 | 0.0944 | 0.108 | – | – | – | – | – | 0.812 | 0.877 | 0.667 | 0.631 | 0.562 |
| NCI-H522 | – | – | – | – | – | 0.574 | 0.57 | 0.561 | 0.583 | – | – | – | – | – | – | – | – | – | – |
| NCI-H1299 | 1.09 | 1.08 | 1.06 | 0.717 | 1.16 | – | – | – | – | 1.02 | 1.04 | 0.992 | 0.988 | 1 | 0.95 | 1.06 | 0.948 | 0.941 | 1.02 |
| NCI-H1395 | 0.945 | 0.922 | 0.945 | 0.871 | 0.818 | 0.701 | 1.01 | 0.806 | 0.771 | – | – | – | – | – | 0.997 | 0.972 | 1.12 | 1 | 0.904 |
| NCI-H1563 | 0.989 | 0.884 | 0.886 | 0.892 | 0.881 | – | – | – | – | 0.963 | 0.842 | 0.752 | 0.829 | 0.796 | 1.18 | 1.07 | 1.15 | 1.08 | 0.96 |
| NCI-H1648 | – | – | – | – | – | 0.565 | 0.356 | – | 0.434 | – | – | – | – | – | – | – | – | – | – |
| NCI-H1650 | 1.07 | 1.01 | 1.3 | 0.933 | 1.02 | 0.335 | 0.305 | 0.28 | 0.314 | 0.214 | 0.195 | 0.223 | 0.185 | 0.202 | – | – | – | – | – |
| NCI-H1703 | 0.333 | 0.313 | 0.347 | 0.248 | 0.356 | – | – | – | – | 0.327 | 0.391 | 0.339 | 0.201 | 0.209 | 0.939 | 0.836 | 0.594 | 0.449 | 0.358 |
| NCI-H1792 | – | – | – | – | – | – | – | – | – | 1.04 | 0.968 | 0.964 | 0.861 | 0.768 | 0.523 | 0.567 | 0.464 | 0.491 | 0.461 |
| NCI-H1793 | 0.733 | 0.614 | 0.632 | 0.55 | 0.554 | 0.274 | 0.269 | 0.223 | 0.262 | – | – | – | – | – | 0.761 | 0.835 | 0.756 | 0.851 | 0.806 |
| NCI-H1944 | 0.755 | 0.888 | 0.821 | 0.851 | 0.876 | 0.25 | 0.253 | 0.257 | 0.257 | – | – | – | – | – | 1.15 | 1.17 | 1.21 | 1.21 | 1.21 |
| NCI-H2170 | 0.987 | 1.01 | 0.972 | 0.996 | 1.07 | 0.664 | 0.748 | 0.501 | 0.793 | – | – | – | – | – | – | – | – | – | – |
| NCI-H2342 | 1.1 | 1.19 | 1.04 | 1.07 | 1.09 | 0.453 | 0.519 | 0.387 | 0.374 | – | – | – | – | – | – | – | – | – | – |
| SK-MES-1 | 0.908 | 0.876 | 1.02 | 0.819 | 0.828 | 1.03 | 0.907 | 0.752 | 0.772 | – | – | – | – | – | 1.07 | 1.11 | 1.05 | 1.03 | 1 |
| SW 900 | 0.92 | 0.887 | 0.875 | 0.798 | 0.768 | 0.48 | 0.556 | 0.475 | 0.562 | – | – | – | – | – | – | – | – | – | – |
